Results taken from US9809640B2, “ApoE peptide dimers and uses thereof” (priority 2010, dated 2017).
Positions of bridges follow the written chain, without caps; N, C: chain ends. Chains are numbered I, II in the order given.

Legend:
PDK1 = PDK1 activation, Western blot; type: cell-based; details: U87 and MB231
Excerpt: FIGS. 10A-10B. […] FIG. 10A: Western blot analysis of U87 glioblastoma cells exposed to the indicated concentrations of COG445 peptide in the presence of EGF. The blot is probed with antibodies for the activated EGF receptor (P-EGFR), total EGF receptor, activated PDK1 (P-PDK1), and total PDK1. FIG. 10B: Western blot and densitometry analysis of Akt activation induced by EGF in U87 cells in the presence of increasing concentrations of COG445.
Akt signaling is often dysregulated in cancers thereby promoting cellular survival and proliferation. […] Given the effect of ApoE peptides on other inflammatory pathologies, we investigated the effect of an ApoE peptide dimer on Akt signaling in breast and brain cancer cells. A disulfide dimer of COG112 (SEQ ID NO: 1) was prepared as described in Example 1 (COG445). Adherent breast cancer cells, MDA-MB-231 (MB231), or glioblastoma cells, U87-MG (U87), were serum starved overnight and then exposed to COG445 for 2 hours before stimulating with epidermal growth factor (EGF) for 5 minutes. […] EGFR activation results in the activation of the PI3K/Akt signaling pathway, which is mediated by PDK1 activation.

B-CLL cells = experiment: Cytotoxicity on patient-derived B-CLL cells (MTS assay)
Excerpt: FIG. 5A: Dose response curves for COG449 cytotoxicity on CLL cells from 4 leukemia patients. Human CLL cells were isolated from blood samples and assayed for COG449 cytotoxicity. […] FIG. 5B: Dose response curves for COG445 on CLL cells from 7 patients or normal B-cells from 5 patients. Human CLL cells and PBMC were isolated and assayed for cytotoxicity of COG445.
Blood from CLL patients was collected and CD5+/CD19+ CLL cells were isolated using the RosetteSep™ Human B-Cell Enrichment Cocktail, according to the manufacturer's instructions, and treated with COG compounds. Compounds were applied to B-CLL cells (2.5×10^5 cells/well in a 96 well plate), after which the cells were treated for 72 hours.
Normal B-cells from volunteers and B-CLL cells from patients are isolated using the RosetteSep™ Human B Cell Enrichment Cocktail according to the manufacturer's instructions. This method depletes whole blood of T cells, monocytes, and NK cells using a proprietary antibody cocktail that cross-links unwanted cells in human whole blood to multiple red blood cells (RBCs) forming immunorosettes. This increases the density of the unwanted (rosetted) cells, such that they pellet along with the free RBCs when centrifuged over a buoyant density medium such as Ficoll-Paque®. This leaves the highly enriched B-cell or B-CLL cells at the interface between Ficoll and the plasma. The antibodies in the cocktail contain […] and anti-CD16 antibodies to remove T cells, monocytes, and NK cells, respectively. The purity of these B-cell and B-CLL preparations is then determined by flow cytometry.
For cytotoxicity assays, 3×10^6 CLL cells/well are cultured in 24 well tissue culture plates in 1.5 mL of Hybridoma SFM™ (Gibco, Long Island, N.Y.) as described by Levesque et al. (2001, 2003). All cultures are incubated at 37° C., 5% CO2 in air.

mTOR = mTOR phosphorylation in MB231 cells, Western blot; type: cell-based; details: markedly reduced at ≧100 nM
Excerpt: FIG. 13A: Western blot and densitometry analysis of phosphorylated m-TOR levels in MDA-MB-231 cells treated with EGF and the indicated concentrations of COG445 in the presence or absence of okadaic acid. FIG. 13B: Western blot analysis of phosphorylated GSK-3β levels in MDA-MB-231 cells treated with EGF and the indicated concentrations of COG445 in the presence or absence of okadaic acid.
Akt exerts its proliferative signal by phosphorylating protein substrates such as mTOR and GSK-3β. To examine the effects of COG445 on downstream Akt signaling in MB231 cells, mTOR activation and GSK-3β inhibition was measured by western blot analysis. […] The reduction in mTOR and GSK-3β phosphorylation was eliminated in the presence of okadaic acid, further evidence that PP2A mediates the effects of COG445 on Akt signaling.

BV2 microglia cells = experiment: LPS-induced nitric oxide production in BV2 microglia cells; type: cell-based
Protocol: FIG. 1. COG 112 inhibits LPS-induced production of inflammatory cytokines in BV2 microglia cells. Inhibition curves for COG112 in the production of NO (green squares), TNFα (red diamonds), and IL-6 (blue triangles) by BV2 microglia. Compounds were added to the final concentrations indicated on the graph along with 100 ng/mL of LPS. After 24 hours the media was removed and assayed by two-site ELISA (BioSource) and quantitated relative to a standard curve on the same plate.
FIG. 3. NO Inhibition curve for COG449. BV2 microglia were treated with COG449 at the final concentrations indicated on the graph, along with 100 ng/mL of LPS. After 24 hours the media was removed and assayed by two-site ELISA (BioSource) and quantitated relative to a standard curve on the same plate.
We also evaluated the various peptides for efficacy in suppressing nitric oxide production induced by LPS stimulation of BV2 microglia cells as a measure of anti-inflammatory activity as well as the maximum dose tolerated in mice (Table I and FIG. 6A). For the LPS assay, EC50 is the concentration of compound that caused a 50% suppression of nitric oxide release from BV2 cells following LPS stimulation. For mouse toxicity, MTD is the maximum dose of the compound that can be given by intravenous injection without causing deaths after 24 hrs. […] Coupling the ApoE domain to a protein transduction domain further enhanced the potency of the dimers.
Low passage BV2 microglial cell cultures are maintained in 10% HI (Heat Inactivated) FBS DMEM media (supplemented with MEM NEAA (Non-Essential Amino Acids), sodium pyruvate and Pen-Strep) and continuously cultured until needed. To determine the IC50 values for NO production, peptides are added to BV2 cultures in 1% HI FBS DMEM media (supplemented with MEM NEAA and sodium pyruvate) at a range of final assay concentrations from 1.0 μM in 2 fold dilutions to 7.8 nM followed immediately by addition of LPS (100 ng/mL final concentration) as previously described (Laskowitz et al. (2001) Exp Neurol, Vol. 167(1): 74-85). After incubating for 18±1 hours, conditioned media is removed for analysis of nitrite (the stable oxidation product of released nitric oxide) by the Griess colorimetric assay (Promega). Remaining cells are assayed for viability in an MTT assay (Promega) and the nitrite assay values are normalized for each concentration using the percent viability of cells in the MTT assay. […] Typically, the absence of LPS exposure to BV2 cells results in levels below the limit of detection in our assays. Similarly, addition of any of the peptides up to 25 μM without LPS results in undetectable NO levels.

I: Ac-RQIKIWFQNRRMKWKKCLRVRLASHLRKLRKRLL-NH2 / II: Ac-RQIKIWFQNRRMKWKKCLRVRLASHLRKLRKRLL-NH2 (disulfide I:17-II:17) [COG445, COG112-C-C-COG112]
PDK1 activation (serine 241 phosphorylation) (PDK1): did not alter | Fold Change (B-CLL cells; CLL EC50 relative to COG056 (rev133) = 1.0): 117.3 | EC50 (B-CLL cells; read-out: ED50 for cytotoxicity of CLL cells, purified disulfide dimer, dimer molecular weight): 110 nM | mTOR phosphorylation upon EGF stimulation (mTOR): dose-dependent decrease | EC50 (BV2 microglia cells; 50% suppression of nitric oxide release from BV2 cells following LPS stimulation): < 1000 nM | IC50 (BV2 microglia cells; BV2 cells, LPS 100 ng/mL, read-out: IC50 for NO production/release): 20 nM
